Results reported in US9938273B2 (Plexxikon Inc., priority 2015, dated 2018).

Key:
FLT3-D835Y = molecular target: T1, FLT3-D835Y (Homo sapiens, UniProt P36888, D835Y); assay: AlphaScreen kinase assay with recombinant enzyme, FLT3-D835Y; format: biochemical; details: 8pt, GMean
T1 construct: purchased Invitrogen PV3967
T1 sequence (P36888 27-993 D835Y): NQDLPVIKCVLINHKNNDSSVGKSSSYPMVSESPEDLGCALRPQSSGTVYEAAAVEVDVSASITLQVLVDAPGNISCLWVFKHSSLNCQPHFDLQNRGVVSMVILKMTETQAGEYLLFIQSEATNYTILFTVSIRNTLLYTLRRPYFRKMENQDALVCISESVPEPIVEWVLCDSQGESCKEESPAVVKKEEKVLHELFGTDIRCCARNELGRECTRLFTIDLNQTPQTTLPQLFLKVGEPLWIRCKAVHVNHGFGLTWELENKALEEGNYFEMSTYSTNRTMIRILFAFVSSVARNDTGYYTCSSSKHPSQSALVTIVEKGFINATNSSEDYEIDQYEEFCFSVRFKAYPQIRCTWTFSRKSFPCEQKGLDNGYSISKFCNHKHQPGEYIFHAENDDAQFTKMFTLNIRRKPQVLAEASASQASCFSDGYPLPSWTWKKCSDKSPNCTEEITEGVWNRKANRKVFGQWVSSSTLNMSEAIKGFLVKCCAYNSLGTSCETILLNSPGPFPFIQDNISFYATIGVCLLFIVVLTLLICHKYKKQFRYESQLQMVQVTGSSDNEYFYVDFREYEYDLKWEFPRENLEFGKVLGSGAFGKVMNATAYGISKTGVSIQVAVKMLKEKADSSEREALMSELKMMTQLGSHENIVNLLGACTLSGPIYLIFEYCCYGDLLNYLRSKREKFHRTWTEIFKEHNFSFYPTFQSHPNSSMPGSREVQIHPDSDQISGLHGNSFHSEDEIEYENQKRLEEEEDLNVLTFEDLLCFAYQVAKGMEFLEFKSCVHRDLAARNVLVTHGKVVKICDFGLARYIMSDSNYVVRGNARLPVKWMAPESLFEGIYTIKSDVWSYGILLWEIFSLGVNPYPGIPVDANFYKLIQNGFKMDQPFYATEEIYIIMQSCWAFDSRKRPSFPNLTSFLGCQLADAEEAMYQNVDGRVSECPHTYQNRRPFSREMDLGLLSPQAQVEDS
In short: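 Inhibition was measured as a drop in AlphaScreen signal arising from phosphotyrosine-bead capture of a biotinylated poly(Glu4-Tyr) peptide (30 nM) phosphorylated by recombinant kinase. For IC50 work the stated final concentration was 10 μM for the FLT3 mutants and 100 μM for c-KIT.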

[1] = system: MOLM-14 D835Y cells, FLT3 ITD and FLT3 D835Y; assay: Cell proliferation assay (CellTiter-Glo), MOLM-14 D835Y; format: cell-based; details: Homo sapiens, 72 h, 3d-Growth, GMean
In short: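 MOLM-14 AML cells (endogenous FLT3 ITD, AC220-selected D835Y or F691L variants) or murine Ba/F3 expressing full-length FLT3 ITD/D835Y, without IL-3 for FLT3 dependence, 1×10^4 cells/well. Eight-point 1:3 series from 1 μM final, 0.2% DMSO, 3 days at 37 °C. CellTiter-Glo luminescence (ATP) gave IC50.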

SMILES | IC50 (FLT3-D835Y) [µM] | IC50 [1] [µM]
O=S(=O)(NC1CC1)c1cccc(-c2cnc3[nH]c(C#CCO)cc3c2)c1 [Compound P-0008, N-cyclopropyl-3-[2-(3-hydroxyprop-1-ynyl)-1H-pyrrolo[2,3-b]pyridin-5-yl]benzenesulfonamide] | 0.0001 to 10 | 
CN(C)CC#Cc1cc2cc(-c3cccc(S(=O)(=O)NC4CC4)c3)cnc2[nH]1 [Compound P-0009, N-cyclopropyl-3-[2-[3-(dimethylamino)prop-1-ynyl]-1H-pyrrolo[2,3-b]pyridin-5-yl]benzenesulfonamide] | 0.0001 to 10 | 
O=S(=O)(NC1CC1)c1cccc(-c2cnc3[nH]c(C#CC4CCCCC4)cc3c2)c1 [Compound P-0010, 3-[2-(2-cyclohexylethynyl)-1H-pyrrolo[2,3-b]pyridin-5-yl]-N-cyclopropyl-benzenesulfonamide] | 50 to 100 | 
CC(C)(C)OC(=O)NC1CCN(C(=O)c2n[nH]c3ccc(-c4cnc5[nH]c(-c6ccccc6)cc5c4)cc23)CC1 [Compound P-0011, tert-butyl N-[1-[5-(2-phenyl-1H-pyrrolo[2,3-b]pyridin-5-yl)-1H-indazole-3-carbonyl]-4-piperidyl]carbamate] | 0.0001 to 10 | 
O=S(=O)(NC1CC1)c1cccc(-c2cnc3[nH]c(C#Cc4ccccc4)cc3c2)c1 [Compound P-0014, N-cyclopropyl-3-[2-(2-phenylethynyl)-1H-pyrrolo[2,3-b]pyridin-5-yl]benzenesulfonamide] | 50 to 100 | 
CN1CC(NC(=O)c2cccc(-c3cnc4[nH]c(-c5ccccc5)cc4c3)n2)C1 [Compound P-0075, N-(1-methylazetidin-3-yl)-6-(2-phenyl-1H-pyrrolo[2,3-b]pyridin-5-yl)pyridine-2-carboxamide] | 0.0001 to 10 | 0.0001 to 10
NC1(C(F)(F)F)CCN(C(=O)c2cccc(-c3cnc4[nH]c(-c5ccccc5)cc4c3)n2)C1 (centres unmarked) [Compound P-0077, [3-amino-3-(trifluoromethyl)pyrrolidin-1-yl]-[6-(2-phenyl-1H-pyrrolo[2,3-b]pyridin-5-yl)-2-pyridyl]methanone] | 0.0001 to 10 | 0.0001 to 10
CC1(N)CCN(C(=O)c2cccc(-c3cnc4[nH]c(-c5ccccc5)cc4c3)n2)C1 (centres unmarked) [Compound P-0078, (3-amino-3-methyl-pyrrolidin-1-yl)-[6-(2-phenyl-1H-pyrrolo[2,3-b]pyridin-5-yl)-2-pyridyl]methanone] | 0.0001 to 10 | 0.0001 to 10
CNCC1CCN(C(=O)c2cccc(-c3cnc4[nH]c(-c5ccccc5)cc4c3)n2)C1 (centres unmarked) [Compound P-0079, [3-(methylaminomethyl)pyrrolidin-1-yl]-[6-(2-phenyl-1H-pyrrolo[2,3-b]pyridin-5-yl)-2-pyridyl]methanone] | 0.0001 to 10 | 0.0001 to 10
CC(C)(C#N)NC(=O)c1cccc(-c2cnc3[nH]c(-c4cscn4)cc3c2)n1 [Compound P-0167, N-(1-cyano-1-methyl-ethyl)-6-(2-thiazol-4-yl-1H-pyrrolo[2,3-b]pyridin-5-yl)pyridine-2-carboxamide] | 0.0001 to 10 | 
CC(C)(C#N)NC(=O)c1cccc(-c2cnc3[nH]c(-c4cnn(C(=O)C5CC5)c4)cc3c2)n1 [Compound P-0184, N-(1-cyano-1-methyl-ethyl)-6-[2-[1-(cyclopropanecarbonyl)pyrazol-4-yl]-1H-pyrrolo[2,3-b]pyridin-5-yl]pyridine-2-carboxamide] | 0.0001 to 10 | 
CC(C)(C#N)NC(=O)c1cccc(-c2cnc3[nH]c(-c4cnn(C(F)F)c4)c(Cl)c3c2)n1 [Compound P-0185, 6-[3-chloro-2-[1-(difluoromethyl)pyrazol-4-yl]-1H-pyrrolo[2,3-b]pyridin-5-yl]-N-(1-cyano-1-methyl-ethyl)pyridine-2-carboxamide] | 0.0001 to 10 | 
CC(C)(C#N)NC(=O)c1cccc(-c2cnc3[nH]c(C4=CCS(=O)(=O)CC4)cc3c2)n1 [Compound P-0186, N-(1-cyano-1-methyl-ethyl)-6-[2-(1,1-dioxo-3,6-dihydro-2H-thiopyran-4-yl)-1H-pyrrolo[2,3-b]pyridin-5-yl]pyridine-2-carboxamide] | 0.0001 to 10 | 
